According to the NIST ThermoML archive (doi:10.1021/je3011634):

Test: xn = mol fraction of the nth substance listed
Conditions: 101 kPa, Liquid; for viscosity: Capillary tube (Ostwald / Ubbelohde) method; for mass density: Vibrating tube method

CC(C)CO [2-methyl-1-propanol] + CC(C)O
Conditions | mass density, 293.15 K [kg/m3] | mass density, 303.15 K [kg/m3] | mass density, 313.15 K [kg/m3] | mass density, 323.15 K [kg/m3] | mass density, 333.15 K [kg/m3] | viscosity, 293.15 K [mPa·s] | viscosity, 303.15 K [mPa·s] | viscosity, 313.15 K [mPa·s] | viscosity, 323.15 K [mPa·s] | viscosity, 333.15 K [mPa·s]
x1 = 0.1495 | 788.29 | 779.93 | 771.29 | 762.29 | 752.87 | 2.45 | 1.817 | 1.259 | 0.983 | 0.648
x1 = 0.2001 | 789.25 | 780.93 | 772.34 | 763.4 | 754.05 | 2.498 | 1.839 | 1.28 | 0.999 | 0.663
x1 = 0.3 | 791.09 | 782.85 | 774.35 | 765.53 | 756.31 | 2.621 | 1.907 | 1.331 | 1.035 | 0.696
x1 = 0.4249 | 793.26 | 785.12 | 776.74 | 768.04 | 758.97 | 2.81 | 2.021 | 1.418 | 1.095 | 0.745
x1 = 0.5189 | 794.8 | 786.73 | 778.43 | 769.83 | 760.87 | 2.976 | 2.131 | 1.505 | 1.158 | 0.794
x1 = 0.6202 | 796.38 | 788.38 | 780.17 | 771.67 | 762.82 | 3.184 | 2.271 | 1.617 | 1.237 | 0.857
x1 = 0.7166 | 797.83 | 789.9 | 781.76 | 773.35 | 764.6 | 3.395 | 2.417 | 1.732 | 1.32 | 0.921
x1 = 0.8005 | 799.06 | 791.18 | 783.1 | 774.76 | 766.09 | 3.594 | 2.547 | 1.837 | 1.394 | 0.979
x1 = 0.9001 | 800.47 | 792.65 | 784.64 | 776.38 | 767.81 | 3.838 | 2.709 | 1.963 | 1.483 | 1.051

CC(C)CO [2-methyl-1-propanol] + CCCO
Conditions | mass density, 293.15 K [kg/m3] | mass density, 303.15 K [kg/m3] | mass density, 313.15 K [kg/m3] | mass density, 323.15 K [kg/m3] | mass density, 333.15 K [kg/m3] | viscosity, 293.15 K [mPa·s] | viscosity, 303.15 K [mPa·s] | viscosity, 313.15 K [mPa·s] | viscosity, 323.15 K [mPa·s] | viscosity, 333.15 K [mPa·s]
x1 = 0.1038 | 803.39 | 795.39 | 787.25 | 778.91 | 770.34 | 2.147 | 1.586 | 1.079 | 0.835 | 0.508
x1 = 0.1962 | 803.24 | 795.27 | 787.16 | 778.85 | 770.31 | 2.269 | 1.657 | 1.14 | 0.88 | 0.545
x1 = 0.2944 | 803.09 | 795.15 | 787.07 | 778.79 | 770.27 | 2.413 | 1.744 | 1.21 | 0.93 | 0.588
x1 = 0.4058 | 802.91 | 795.01 | 786.96 | 778.71 | 770.2 | 2.594 | 1.855 | 1.297 | 0.991 | 0.641
x1 = 0.504 | 802.75 | 794.88 | 786.86 | 778.62 | 770.13 | 2.768 | 1.967 | 1.382 | 1.052 | 0.693
x1 = 0.6041 | 802.58 | 794.74 | 786.74 | 778.52 | 770.04 | 2.961 | 2.099 | 1.487 | 1.126 | 0.753
x1 = 0.7019 | 802.41 | 794.59 | 786.61 | 778.41 | 769.94 | 3.172 | 2.253 | 1.611 | 1.217 | 0.83
x1 = 0.8072 | 802.21 | 794.41 | 786.45 | 778.26 | 769.8 | 3.452 | 2.448 | 1.767 | 1.335 | 0.928
x1 = 0.8996 | – | 794.24 | 786.29 | 778.11 | 769.64 | – | 2.643 | 1.914 | 1.446 | 1.018

NCCCO [3-amino-1-propanol] + CCCO
Conditions | mass density, 293.15 K [kg/m3] | mass density, 303.15 K [kg/m3] | mass density, 313.15 K [kg/m3] | mass density, 323.15 K [kg/m3] | mass density, 333.15 K [kg/m3] | viscosity, 293.15 K [mPa·s] | viscosity, 303.15 K [mPa·s] | viscosity, 313.15 K [mPa·s] | viscosity, 323.15 K [mPa·s] | viscosity, 333.15 K [mPa·s]
x1 = 0.1088 | 826.73 | 818.68 | 810.49 | 802.16 | 793.63 | 2.978 | 2.081 | 1.401 | 0.999 | 0.579
x1 = 0.2019 | 845.91 | 837.85 | 829.65 | 821.33 | 812.86 | 4.164 | 2.839 | 2.061 | 1.474 | –
x1 = 0.2993 | 865.53 | 857.43 | 849.23 | 840.93 | 832.49 | 5.873 | 3.89 | 2.864 | 2.11 | 1.266
x1 = 0.4099 | 886.82 | 878.7 | 870.51 | 862.22 | 853.84 | 8.435 | 5.443 | 3.97 | 2.95 | 1.828
x1 = 0.5002 | 903.78 | 895.67 | 887.49 | 879.21 | 870.85 | 11.26 | 7.04 | 5.05 | 3.657 | 2.352
x1 = 0.6014 | 922.34 | 914.25 | 906.08 | 897.8 | 889.48 | 15.35 | 9.477 | 6.59 | 4.685 | 3.105
x1 = 0.6995 | 939.59 | 931.51 | 923.4 | 915.21 | 907.01 | 20.08 | 12.29 | 8.276 | 5.816 | 3.907
x1 = 0.8091 | 958.11 | 950.09 | 942.03 | 933.93 | 925.77 | 26.44 | 15.93 | 10.5 | 7.232 | 4.917
x1 = 0.9003 | 972.64 | 964.64 | 956.59 | 948.49 | 940.36 | 32.71 | 19.52 | 12.63 | 8.57 | 5.829
